Assay [1] deals with T1, C2β domain of AtPLDβ (mC2β) (Arabidopsis thaliana, UniProt P93733, F299V).
T1 construct: gene PLDBETA1; C2 domain cut to match mature-like C2α; forward primer encodes MVGRLPG (second codon F changed to V); C-terminal 6xHis kept
T1 sequence (P93733 298-418 F299V): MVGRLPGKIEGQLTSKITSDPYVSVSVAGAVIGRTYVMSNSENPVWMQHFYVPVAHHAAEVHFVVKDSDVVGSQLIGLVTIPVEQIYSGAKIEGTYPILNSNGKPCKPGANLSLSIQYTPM
Nature of the assay: protein to dansyl-PE liposome FRET. Format: binding. As to conditions: 20 μM liposomes with 5% dansyl-PE, 1 μM domain, 50 mM HEPES pH 8, 30 °C; 0, 50 or 200 μM Ca2+.

The target in assay [2] is T2, C2α domain of AtPLDα (mC2α) (Arabidopsis thaliana, UniProt Q38882).
T2 construct: gene PLDALPHA1; mature-like C2 domain lacking the N-terminal residues; forward primer encodes (M)ANVEET, extra Met added; last encoded residues before tag ...LQYFHVE by reverse primer; C-terminal 6xHis kept
T2 sequence (Q38882 35-152): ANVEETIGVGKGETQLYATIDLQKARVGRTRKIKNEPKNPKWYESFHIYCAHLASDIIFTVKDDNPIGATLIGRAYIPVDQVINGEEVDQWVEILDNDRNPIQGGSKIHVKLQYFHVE
Nature of the assay: protein to dansyl-PE liposome FRET; lipid dot-blot. The following applies: 20 μM liposomes with 5% dansyl-PE, 1 μM domain, 50 mM HEPES pH 8, 30 °C; 0, 50 or 200 μM Ca2+. Format: binding.

The target of assay [3] is T1, C2β domain of AtPLDβ (mC2β). Nature of the assay: protein to dansyl-PE liposome FRET; lipid dot-blot. The class given is binding. The following applies: 20 μM liposomes with 5% dansyl-PE, 1 μM domain, 50 mM HEPES pH 8, 30 °C; 0, 50 or 200 μM Ca2+.
The target of the next assay is T3, AtPLDα-WT (Arabidopsis thaliana, UniProt Q38882).
T3 construct: gene PLDALPHA1; full-length cDNA, untagged, Pichia pastoris X-33; possibly N-glycosylated
T3 sequence (Q38882 36-810): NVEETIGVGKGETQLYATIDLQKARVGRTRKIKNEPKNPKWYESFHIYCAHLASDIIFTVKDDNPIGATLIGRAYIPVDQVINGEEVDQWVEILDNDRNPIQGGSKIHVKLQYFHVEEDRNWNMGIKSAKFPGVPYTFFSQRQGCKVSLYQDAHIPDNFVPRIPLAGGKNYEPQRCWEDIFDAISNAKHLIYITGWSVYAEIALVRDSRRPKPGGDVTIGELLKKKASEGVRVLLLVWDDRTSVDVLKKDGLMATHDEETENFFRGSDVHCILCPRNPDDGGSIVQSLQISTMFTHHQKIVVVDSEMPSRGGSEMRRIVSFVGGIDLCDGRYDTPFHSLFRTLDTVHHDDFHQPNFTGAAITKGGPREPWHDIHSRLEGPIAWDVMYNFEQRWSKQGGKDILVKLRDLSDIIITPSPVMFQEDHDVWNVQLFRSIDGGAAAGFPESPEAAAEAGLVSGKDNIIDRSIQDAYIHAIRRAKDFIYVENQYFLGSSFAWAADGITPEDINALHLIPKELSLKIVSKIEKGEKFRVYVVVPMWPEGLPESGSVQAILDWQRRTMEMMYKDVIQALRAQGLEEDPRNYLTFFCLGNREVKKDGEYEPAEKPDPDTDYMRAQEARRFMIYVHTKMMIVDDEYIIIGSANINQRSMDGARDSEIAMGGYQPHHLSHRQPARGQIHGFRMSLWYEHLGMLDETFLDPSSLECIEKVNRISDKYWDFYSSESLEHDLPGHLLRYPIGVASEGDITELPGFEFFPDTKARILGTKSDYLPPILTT
Nature of the assay: choline oxidase / peroxidase coupled colorimetric assay, […] nm. The class given is biochemical. As to conditions: crude P. pastoris extract; 266 μM POPC in SDS / Triton X-100 mixed micelles, 20 mM CaCl2, 50 mM Tris-HCl pH 8.0.

On to `CCCCCCCC/C=C\CCCCCCCC(=O)O[C@H](COC(=O)CCCCCCCCCCCCCCC)COP(=O)(O)OCC(O)CO` (mixture of isomers) [PG, 1-Palmitoyl-2-oleoyl-sn-glycero-3-phospho-(1′-rac-glycerol)], for which the “relative FRET” value in assay [1] and in assay [2] was “both C2 domains showed a strong binding to PG vesicles” throughout.

Consider `CCCCCCCC/C=C\CCCCCCCC(=O)O[C@H](COC(=O)CCCCCCCCCCCCCCC)COP(=O)(O)O` [PA, 1-palmitoyl-2-oleoyl-sn-glycero-3-phosphate], for which the “relative FRET” value in assay [2] was “both C2 domains were found to bind anionic phospholipids (PA and PS)”; in assay [3] it was “both C2 domains were found to bind anionic phospholipids (PA and PS)”.

Regarding `CCCCCCCC/C=C\CCCCCCCC(=O)O[C@H](COC(=O)CCCCCCCCCCCCCCC)COP(=O)([O-])OCC[N+](C)(C)C` [PC, 1-Palmitoyl-2-oleoyl-sn-glycero-3-phosphocholine], the PLD activity entry on AtPLDα-WT is on record as “crude extracts of P. pastoris transformed with the AtPLDα-WT exhibited a higher PLD activity”.

The record behind these values is paper PMC5215601, “Functional Characterization of the N-Terminal C2 Domain from Arabidopsis thaliana Phospholipase Dα and Dβ” (BioMed Research International, 2016).
